Reference: patent US7989188B2, “Conjugates for cancer therapy and diagnosis” (BioSight Ltd., priority 2004, dated 2011)

How the values were obtained:
[1] = In-vitro toxicity profile, MTT cell viability; type: cell-based; settings: human, HUVEC (human umbilical vein endothelial cells, normal), healthy cells (HUVEC), at the concentration of 5-FU that resulted in 90% mortality (IC90), FIG. 2
Description: (§1) Materials and Methods: Human umbilical vein endothelial cells (HUVEC, normal) cells were grown in M199 medium supplemented with 20% fetal calf serum (FCS), vitamins, 1 ng/ml hbFGF, and antibiotics at […], 5% CO2. Human melanoma cells (WW-94, cancer) cells were grown in 50% DMEM/50% F-12 medium supplemented with 10% fetal calf serum and antibiotics.
(§2) The cells were seeded in a 96-well ELISA dish at a concentration of 10,000-20,000 cells/well. The conjugates were added at concentrations that cause IC50 (50% lethality, FIG. 1), or IC90 (90% lethality, FIG. 2) by 5-FU. The cells were incubated for 72 hours at 37° C. and 5% CO2. After 72 hours the medium was aspirated, and DMEM containing 5% FCS and 0.5 mg/ml MTT (3-(4,5-Dimethyl-2-thiazolyl)-2,5-diphenyl-2H-tetrazolium bromide, an indicator of cell viability) was added. The cells were incubated for 2-4 hours at 37° C. and 5% CO2, washed with phosphate buffer saline (PBS) and dissolved in dimethylsulfoxide (DMSO). The results were analyzed using Techan ELISA reader equipped with a 570 nm filter. The results are represented as % of cell mortality.

[2] = tested on: Human umbilical vein endothelial cells (HUVEC, normal); assay: In-vitro toxicity profile, MTT cell viability; type: cell-based; settings: normal cells (HUVEC), 72 hours, at the concentration of 5-FU that causes 50% mortality (IC50), FIG. 1
Description: as §1, §2

[3] = Acute intravenous (IV) toxicity, single injection, MTD and LD50; settings: female, BALB/c, mouse, in vivo, iv
Description: (§3) Purpose: To measure the potential acute intravenous (IV) toxicity of Asp(5-FU) in mice, estimated by Maximum Tolerated Dose (MTD) and 50% Lethal Dose (LD50).
(§4) Method: The potential acute intravenous (IV) toxicity of the Asp(5-FU) was assessed in groups of BALB/c female mice of 5 mice per group, in order to establish appropriate MTD levels towards a projected series of various anti-tumorigenic efficacy trials.
(§5) Asp(5-FU) was administered as single IV injections at three dose levels of 80, 150 and 200 mg/kg. One group was administered with saline served as control. In all instances, freshly prepared solutions were injected at a constant volume of 10 ml/kg.

BALB/c female mice = assay: as above
Description: as §3, §4, §5

[4] = tested on: MX-1 human mammary duct carcinoma; assay: Anti-tumor activity, MX-1 xenograft murine model, intravenous treatment; type: in vivo, BALB/c nude mice; settings: for increase in tumor volume at the end of the study period: injected Days 10, 14 and 18, Asp(5-FU) 50 and 100 mg/kg, 5-FU 26 mg/kg, saline 170%
Description: The potential anti-tumor activity of Asp(5-FU) was assessed based on the relative growth inhibition of human mammary duct carcinoma, MX-1 murine model.
Propagation of Tumor Material (MX-1 fragments): The Mammary Xenograft-1 (MX-1) is a human derived mammary duct carcinoma, supplied by the National Cancer Institute (NCI). The tissue was kept frozen until the time of implantation. The fragments (one to each animal in the study) were prepared according to the NCI recommended transplantation protocol.
Each vial containing 5 to 6 fragments was rapidly thawed (60-90 seconds) in a water bath at 37-40° C. The frozen fragments were implanted immediately after thawing.
Two fragments were implanted close to each other at the same sub-axillary incision site of each animal assigned to the propagation phase. The mass doubling time of the MX-1 tumor during the logarithmic phase was 4-5 days post implantation. Subsequently, another 2 fragments were implanted into each of 6 animals to achieve at least a total of 20 implanted fragments.
At the end of the logarithmic phase, the donor animals were sacrificed, the tumors were excised, dissected and transferred to a sterile Petri dish placed over ice and cut into approximately 20 fragments (about 2×2×2 mm each) for their transplantation into 10 naïve mice. A total of 42 tumor fragments were transplanted at the end of the second propagation phase. No more than 30 minutes elapsed from the time the tumor was removed from the donor animals until transplantation.
Tumor Induction and Monitoring (Pre-Treatment): Upon completion of the propagation phase, tumor fragments measuring about 2×2×2 mm each, were implanted subcutaneously (SC) into the right flank of each test animal assigned to the main study. Tumor growth was monitored twice weekly and the total SC mass (mm^3) determined on the basis of width and length measurement using micrometer calipers. […]
Tumor volume changes were determined using the following equation: V (mm^3)=d^2 (mm^2)×D (mm)/2 wherein d and D represent the smallest and the largest perpendicular tumor diameters respectively. […]
Body Weight: Individual body weights were determined prior to MX-1 fragment transplantation and thereafter once weekly until initiation of treatment. Following initiation of treatment individual body weights were determined twice weekly until the scheduled study termination or in case of removal of animals from the study due to animal welfare reasons, at the time of death.
Necropsy Procedures and Macroscopic Examination: Necropsy was performed on all animals including those removed from the study for animal welfare reasons and all surviving 10 days after the last dosing session (Groups 1, 2 & 3), following euthanasia. […] All gross pathological changes were recorded. […]

[5] = Acute toxicity (MTD), single administration by oral gavage; settings: mouse, in vivo, po
Description: (§6) OBJECTIVE: To determine the Maximum Tolerated Dose (MTD) of the test product, Asp(5-FU), following a single administration by oral gavage (PO) to mice.
(§7) This experiment was performed essentially according to Example 22 supra, with the exception that the test agent and the controls were administered orally, by oral gavage. Asp(5-FU) was suspended in corn oil and administered by single oral gavage (PO), at 2 dose levels of 200 and 400 mg/kg, to 2 test groups. An additional equally sized group was administered the vehicle (corn oil) and served as control. In all instances the volume dosage was 10 ml/kg.

mice [6] = assay: as above; settings: single PO 200 and 400 mg/kg
Description: as §6, §7

[7] = tested on: human mammary duct carcinoma xenograft MX-1; assay: Anti-tumor activity, MX-1 xenograft murine model, oral gavage; type: in vivo, mice; settings: PO gavage 200 mg/kg, seven administrations at 3-days inter-dosing intervals
Description: The compounds were administered to mice following about 3-6 hours food deprivation prior to dosing, using a suitable stainless steel feeding needle. Following dosing, food was withheld for further 1-2 hours.
Dose and Volume Dosage: 50 mg/kg reference item and 200 mg/kg of Asp(5-FU). In all instances, volume dosage was 10 ml/kg.
Frequency and Duration: Treatment with Control, Test or Reference Items was carried out as 1× daily injection at 3-days inter-dosing intervals×7 (days 1-25).

mice [8] = settings: NIH report; cited from earlier work

Compound | mortality at 72 h [1] [%] | % of cell mortality [2] | LD50 [3] [mg/kg] | MTD [3] [mg/kg] | less toxic than 5-FU (BALB/c female mice; female, BALB/c, mouse, in vivo) [%] | gross pathological findings at scheduled necropsy (BALB/c female mice; single IV 80, 150 and 200 mg/kg) | Incidence of mortality (BALB/c female mice; single IV injection, high-dose group 200 mg/kg, immediate post-dosing period) | clinical signs (BALB/c female mice; single IV, high-dose 200 mg/kg, survivors or decedents respectively) | clinical signs (BALB/c female mice; single IV, intermediate- and low-dose 150 & 80 mg/kg) | Mean group body weight (BALB/c female mice; single IV, intermediate-dose group, Day 8, p<0.01, full recovery Day 8-15) | tumor progression compared to controls ([4]; Asp(5-FU) 50 and 100 mg/kg, tumor volume, FIG. 5) | tumor weight upon necropsy compared to 5-FU and saline control ([4]; end of treatment period, FIG. 6) | increase in tumor volume at the end of the study period [4] [%] | MTD at 14 days [5] [mg/kg] | gross pathological findings at scheduled necropsy (mice [6]) | clinical signs in reaction to dosing (mice [6]; 14-day observation period) | progressive tumor development compared to corn oil controls [7] | LD50 (mice [8]) [mg/kg] | MTD (mice [8]) [mg/kg]
NC(CC(=O)n1cc(F)c(=O)[nH]c1=O)C(=O)O [Asp(5-FU), L-aspartic acid-beta-1N-(2,4-dioxo-5-fluoropyrimidine)] | 20 | did not kill normal cells | 200 | 160 | 600 | No gross pathological findings | 3/5 | brief decreased motor activity or lateral recumbency | No obvious clinical signs | transient reduced body weight | significant reduction in tumor progression | significant decrease | 104 | > 400 | No gross pathological findings | No noticeable clinical signs | relative decrease in progressive tumor development |  | 
O=c1[nH]cc(F)c(=O)[nH]1 [Compound 5-FU, 2,4-dioxo-5-fluoropyrimidine] |  |  |  |  |  |  |  |  |  |  |  |  | 185 |  |  |  |  | 81 | 24 to 26
